Here are results for 7 compounds from ChEMBL document CHEMBL1155378, “Design, synthesis, and evaluation of indole compounds as novel inhibitors targeting Gp41” (Bioorg Med Chem Lett, 2010).

Broadly, the IC50 is the concentration that gives 50% inhibition. A higher IC50 goes with weaker potency in that assay. As a reminder, the Ki is a measure of affinity in units of concentration, obtained from inhibition or displacement. Read a low Ki as higher affinity. What is called CC50 is the concentration at which the toxic effect on the cells reaches its halfway point. Low readings indicate harm at low concentration, high ones better tolerance by the cells.

Series [1] can be described thus: Inhibition of HIV1 envelope glycoprotein 41-mediated membrane fusion between virus-transfected human HL2/3 cells and human TZM-bl cells after 6 hrs by fluorescence-based cell-cell fusion assay. On the set-up: species or system Human immunodeficiency virus 1.
Series [2] is described as follows: Displacement of C18-Aib-lucifer yellow from HIV1 envelope glycoprotein gp41 Fe(env2.0)3 by fluorescence assay. On the set-up: species or system Human immunodeficiency virus 1.
Series [3] in a line: Cytotoxicity against human HL2/3 cells after 24 hrs by XTT proliferation assay. It is filed as cell-based. The settings on record: hl2/3, 24 h. In general terms: Tetrazolium assays rely on reduction of a dye to a coloured formazan, in cell work by metabolically active cells.
A short description of series [4]: Inhibition of HIV1 envelope glycoprotein gp41. On the set-up: species or system Human immunodeficiency virus 1.
Series [5] has as its system Human immunodeficiency virus 1. Description: Inhibition of HIV1 envelope glycoprotein gp41 by cell-cell fusion assay.

In the case of `Cc1ccc(C2=NNC3C=CC4C(C(F)(F)F)=CC(C(F)(F)F)=NC4N23)cc1` (stereo not given), in series [1], the IC50 came to 18 µM. This counts as double-digit micromolar.
Take `O=C(O)c1cccc(Cc2ccc3ccn(-c4cccc(C(=O)O)c4)c3c2)c1`: the Ki in series [2] is 107 µM. For the same compound, the CC50 in series [3] was greater than 400 µM.
Turning to `COc1ccc(Cn2ccc3ccc(Cc4cccc(C(=O)O)c4)cc32)cc1`, the CC50 in series [3] was found to be 100 µM.
On the same count and under the same terms, then `COc1cccc(-n2ccc3ccc(Cc4cccc(C(=O)O)c4)cc32)c1`, with greater than 100 µM.
Turning to `COc1ccc(S(=O)(=O)O)cc1/N=N/c1c(S(=O)(=O)O)cc2cc(Nc3nc(Nc4ccccc4)nc(Nc4cc(C)c(/N=N/c5cc(S(=O)(=O)O)cc6cc(S(=O)(=O)O)cc(O)c56)cc4OC)n3)ccc2c1O`, the IC50 in series [4] turned out to be 0.62 µM. This compound also came in with an INH in series [5] of 4.2 µM.
For `O=C(O)c1cccc(Cc2ccc(F)cc2)c1`, the Ki in series [2] was determined as 548 µM. Besides, it took 560 µM to reach half-maximal inhibition in series [1] (IC50).
In series [3], `O=C(O)c1cccc(Cc2ccc3ccn(Cn4ccc5ccc(Cc6cccc(C(=O)O)c6)cc54)c3c2)c1` returned a CC50 of 80 µM.
